Experimental data: patent US20050106141A1, “Hairless protein-interacting partner complexes and methods thereof for the beautification and/or improvement of mammalian skin” (The Procter & Gamble Company, priority 2003, published 2005)
Where two headings read alike, the source gives them in different places.

How the values were obtained:
[1] = biological target: T1, BD-VDR><AD-TRβ interaction (Mus musculus, UniProt P48281); assay: Yeast two-hybrid alpha-galactosidase reporter assay, BD-VDR interaction with AD-TRβ; format: cell-based; settings: assay of example 3
T1 construct: expressed in transfected cells; host or cells: yeast
T1 sequence (P48281 1-422): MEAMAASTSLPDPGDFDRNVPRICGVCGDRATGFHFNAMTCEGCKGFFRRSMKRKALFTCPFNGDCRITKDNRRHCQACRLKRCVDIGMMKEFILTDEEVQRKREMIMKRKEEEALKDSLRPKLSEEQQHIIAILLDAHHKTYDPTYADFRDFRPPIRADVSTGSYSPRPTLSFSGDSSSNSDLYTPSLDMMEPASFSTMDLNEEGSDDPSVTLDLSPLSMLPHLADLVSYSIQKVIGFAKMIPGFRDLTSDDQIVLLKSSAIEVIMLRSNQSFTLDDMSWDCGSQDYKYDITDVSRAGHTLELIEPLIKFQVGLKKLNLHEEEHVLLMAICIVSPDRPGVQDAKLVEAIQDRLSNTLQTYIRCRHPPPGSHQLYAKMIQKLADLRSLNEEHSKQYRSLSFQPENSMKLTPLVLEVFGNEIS
T1 sequence (P10828 1-461 partner): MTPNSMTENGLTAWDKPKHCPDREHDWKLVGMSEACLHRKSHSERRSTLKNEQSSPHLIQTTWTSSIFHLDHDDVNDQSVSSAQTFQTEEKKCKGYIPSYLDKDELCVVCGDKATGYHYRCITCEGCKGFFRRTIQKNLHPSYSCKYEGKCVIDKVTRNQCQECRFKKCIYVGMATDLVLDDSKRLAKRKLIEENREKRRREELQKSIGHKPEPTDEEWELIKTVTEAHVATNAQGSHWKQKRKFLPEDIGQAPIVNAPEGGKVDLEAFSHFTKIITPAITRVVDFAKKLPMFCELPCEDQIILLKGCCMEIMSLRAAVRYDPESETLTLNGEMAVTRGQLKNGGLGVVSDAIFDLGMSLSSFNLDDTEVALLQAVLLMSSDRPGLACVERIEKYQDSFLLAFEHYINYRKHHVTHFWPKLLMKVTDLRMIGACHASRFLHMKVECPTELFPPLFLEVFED
Description: Increase or decrease in alpha-galactosidase activity of AH109 (BD-HRt><AD-IP) strain grown in Leu, Trp, His TDO in the presence of various test compounds is used to screen for agonists or antagonists of BD-HRt><AD-IP interaction. A diverse library of compounds is screened.
Microtiter plates with TDO media seeded with freshly cultured yeast cells at 0.05 optical density at 650 nm (OD650) are treated with various test compounds at 100-400 uM or vehicle (DMSO) control. Stock solutions of test compounds at 10-20 mM are made in DMSO and tested at 100-400 μM final concentration. The final assay mixture comprising of cells, TDO and compound (or DMSO alone) is adjusted to be 100 ul and the amount of DMSO is maintained at or below 2%. The plates are incubated for 3-4 days without shaking at 25° C. Plates are briefly agitated to obtain uniform suspension of cells prior to addition of assay buffer. […] Plates are briefly agitated to obtain uniform suspension of cells and absorbance at both 650 nM (OD650)ref and 410 nm (OD410)ref are measured. […] For color development 100 ul of 0.1 M sodium carbonate solution is added and after standing for at least 1 minute, OD410exp is measured.

LXR [2] = settings: oral administration, mice; cited from earlier work
LXR [3] = settings: oral administration, hamsters; cited from earlier work

| SMILES | enhancement of BD-VDR / AD-TRβ interaction [1] | plasma phospholipid levels (LXR [2]) | plasma triglyceride levels (LXR [2]) | plasma phospholipid levels (LXR [3]) | plasma triglyceride levels (LXR [3]) |
| --- | --- | --- | --- | --- | --- |
| C=C1CC[C@H](O)C/C1=C/C=C1\CCC[C@]2(C)[C@@H]([C@H](C)CCCC(C)(C)O)CC[C@@H]12 [25 HC, 25-hydroxy cholecalciferol] | approximately 2 fold | – | – | – | – |
| O=S(=O)(c1ccccc1)N(CC(F)(F)F)c1ccc(C(O)(C(F)(F)F)C(F)(F)F)cc1 [T0901317] | – | increased | increased | increased | increased |
